From patent publication US20260125374A1, “PI3K-ALPHA INHIBITORS AND METHODS OF MAKING AND USING THE SAME” (Relay Therapeutics, Inc., priority 2021, published 2026)
Marks after values point to notes of the source that are not given here.

Assay: Polymorph screening (equilibration, anti-solvent, slow evaporation, slow cooling, temperature cycling, heating-cooling; XRPD and SFC)
Format: physicochemical
Description: This polymorph screening program of compound I-1 free form was performed with two batches of the pure enantiomer. Both batches are crystalline and is assigned as Form A. The polymorphic behaviors of the enantiomer were investigated by equilibration at 25° C. and 50° C., equilibration under a temperature cycle, crystallization from hot saturated solutions by slow cooling, slow evaporation, precipitation by addition of anti-solvent, and DSC heating-cooling cycle experiments. Relative stability of identified polymorphs was investigated by competitive slurry experiments.
(§1) About 50 mg of I-1 Form A was weighed into a 2 mL glass vial and equilibrated in suitable amount of solvents (pretreated by molecular sieves) at 25° C. for 2 weeks with a stirring plate and with protection from light. Obtained suspensions were filtered with 0.45 μm nylon membrane and the solid parts (wet cake) were investigated by XRPD. When differences were observed, additional investigations were performed (e.g. DSC, TGA, ^1H-NMR, SFC).
as §1, with “into” for “into a”, “vials” for “vial”, “50°” for “25°”, “10 days” for “2 weeks”, “investigation was” for “investigations were”
I-1 Form A was dissolved in a good solvent. […] The solvents used were pretreated by molecular sieve. Precipitates were collected by filtration. The solid part (wet cake) was investigated by XRPD. […] When differences were observed, additional investigations were performed (e.g. DSC, TGA, ^1H-NMR, SFC).
Based on approximate solubility results, I-1 Form A was dissolved in suitable amount of solvents (pretreated by molecular sieves). Obtained solutions were filtered by 0.45 μm nylon filter. […] Solid residues were examined for their polymorphic form. When differences were observed, additional investigations were performed (e.g. DSC, TGA, ^1H-NMR, SFC).
Approximate 50 mg of batch I-1 Form A were dissolved in the minimal amount of selected solvents (without pretreatment by molecular sieves) at 50° C. Obtained solutions were filtered by 0.45 μm nylon filter. […] Precipitates were collected by filtration. The solid parts (wet cake) were investigated by XRPD. When differences were observed, additional investigations were performed (e.g. DSC, TGA, ^1H-NMR, SFC). When no precipitation was obtained or only a few solids were obtained, the solutions were placed at 5° C. for crystallization.
About 50 mg of I-1 Form A was equilibrated in different solvents (pretreated by molecular sieves) under a temperature cycle between 5° C. to 50° C. at a heating/cooling rate of 0.2° C./min for 10 cycles and with protection from light. After 10 cycles, precipitates were collected at 5° C. by filtration. The solid parts (wet cake) were investigated by XRPD. When differences were observed, additional investigations were performed (e.g. DSC, TGA, 1H-NMR, SFC).
Polymorphic behavior of I-1 Form A was investigated by two different heating-cooling cycles of DSC. Cycle 1:30° C. to 280° C. at 10° C./min; 280° C. to −20° C. at 20° C./min; reheat to 300° C. at 10° C./min. Cycle 2:30° C. to 280° C. at 10° C./min; 280° C. to-20° C. at 2° C./min; reheat to 300° C. at 10° C./min.

[1] = anti-solvent Acetone / Heptane(2V), added III-1 Form D seeds, stirred for 1 h
[2] = anti-solvent MeOH / Water(0.1V), III-1 Form A seeds, stirred for 2 days
[3] = anti-solvent THF / MTBE(1.5V), added I-1 Form C seeds, stirred for 2 h

For `N#Cc1c(-c2cc(NC(=O)c3cc(F)cc(C(F)(F)F)c3)c3c(c2)C(=O)N[C@H]3c2cc(F)ccc2Cl)ccc2ncnn12` [Compound I-1, (R)-N-(3-(2-chloro-5-fluorophenyl)-6-(5-cyano-[1,2,4]triazolo[1,5-a]pyridin-6-yl)-1-oxoisoindolin-4-yl)-3-fluoro-5-(trifluoromethyl)benzamide], the XRPD [1] was “I-1 Form A”, the “ee %(SFC)” value [1] was “ee %(SFC): 94.9%*” and the “ee %(SFC)” value (anti-solvent MeOH / Water(0.1V), III-1 Form A seeds, stirred for 2 h) was “ee %(SFC): 98.8%*”. For the same compound, the XRPD [2] was “I-1 Form A”, the “ee %(SFC)” value [2] was “ee %(SFC): 99.2%*” and the XRPD [3] was “I-1 Form C”. For the same compound, the “ee %(SFC)” value [3] was “ee %(SFC): 99.5%*”, the XRPD (anti-solvent precipitation at 25° C.: Acetone / Heptane(2V)) was “I-1 Form A” and the XRPD (anti-solvent precipitation at 25° C.: Acetone / MTBE(4V)) was “I-1 Form A”. For the same compound, the XRPD (anti-solvent precipitation at 25° C.: MeOH / MTBE(4V), stirred at 25° C. for 23 days) was “I-1 Form E”, the “Comments (outcome)” value (anti-solvent precipitation at 25° C.: MeOH / Toluene(4V)) was “Clear solution” and the XRPD (anti-solvent precipitation at 25° C.: THF / Heptane(1.5V)) was “I-1 Form C”. For the same compound, the XRPD (anti-solvent precipitation at 25° C.: THF / MTBE(4V)) was “I-1 Form C”, the “ee %(SFC)” value (anti-solvent precipitation: MeOH / MTBE(4V), stirred at 25° C. for 23 days, SFC immediately after preparation) was “ee % (SFC): 2.7%*” and the “ee %(SFC)” value (anti-solvent precipitation: THF / MTBE(4V), SFC immediately after preparation) was “ee % (SFC): 100.0%*”. For the same compound, the “racemization in organic solvents (free form polymorph study)” value (certain organic solvents, including methanol and IPAc) was “easily racemized”, the XRPD (equilibration at 25° C. for 2 weeks in 1,4-Dioxane) was “I-1 Form A” and the XRPD (equilibration at 25° C. for 2 weeks in 2-MeTHF) was “I-1 Form A”. The XRPD (equilibration at 25° C. for 2 weeks in ACN/water(90:10, v/v) a.w. 0.9) was “I-1 + I-2 mixture”, the “ee %(SFC)” value (equilibration at 25° C. for 2 weeks in ACN/water(90:10, v/v), SFC immediately after preparation) was “ee % (SFC): 89.6%*” and the XRPD (equilibration at 25° C. for 2 weeks in Acetone) was “I-1 + I-2 mixture”. For the same compound, the XRPD (equilibration at 25° C. for 2 weeks in Acetone/water(60:40, v/v) a.w. 0.8) was “I-1 + I-2 mixture”, the XRPD (equilibration at 25° C. for 2 weeks in Acetonitrile) was “I-1 Form A” and the XRPD (equilibration at 25° C. for 2 weeks in Benzyl alcohol) was “I-1 Form A”. The XRPD (equilibration at 25° C. for 2 weeks in Dichloromethane) was “I-1 Form A”, the XRPD (equilibration at 25° C. for 2 weeks in Ethanol) was “I-1 Form A” and the XRPD (equilibration at 25° C. for 2 weeks in Ethyl acetate) was “I-1 Form A”. For the same compound, the XRPD (equilibration at 25° C. for 2 weeks in Isopropyl acetate) was “I-1 Form A”, the XRPD (equilibration at 25° C. for 2 weeks in MeOH/water(55:45, v/v) a.w. 0.7) was “I-1 Form A” and the XRPD (equilibration at 25° C. for 2 weeks in Methanol) was “I-1 + I-2 mixture”. For the same compound, the XRPD (equilibration at 25° C. for 2 weeks in Methyl ethyl ketone) was “I-1 Form A”, the XRPD (equilibration at 25° C. for 2 weeks in THF/water(85:15, v/v) a.w. 0.9, target concentration 510 mg/mL) was “III-1 Form B” and the XRPD (equilibration at 25° C. for 2 weeks in Tetrahydrofuran) was “I-1 Form A”. The XRPD (equilibration at 25° C. for 2 weeks in Water) was “I-1 + I-2 mixture”, the XRPD (equilibration at 25° C. for 2 weeks in t-Butyl methyl ether) was “I-1 Form A” and the “XRPD (4 days)” value (equilibration at 25° C. in THF/water(85:15, v/v) a.w. 0.9, added III-1 Form B seeds) was “I-1 + II-1 mixture”. The “ee %(SFC)” value (equilibration at 25° C. in THF/water(85:15, v/v), 4 days, added III-1 Form B seeds) was “ee %(SFC): 93.8%*”, the XRPD (equilibration at 50° C. for 10 days in 1,4-Dioxane) was “I-1 Form B” and the “ee %(SFC)” value (equilibration at 50° C. for 10 days in 1,4-Dioxane, SFC immediately after preparation) was “ee % (SFC): 100.0%*”. For the same compound, the XRPD (equilibration at 50° C. for 10 days in ACN/water(80:20, v/v) a.w. 0.9) was “III-1 Form A”, the “ee %(SFC)” value (equilibration at 50° C. for 10 days in ACN/water(80:20, v/v), SFC immediately after preparation) was “ee % (SFC): 50.7%*” and the XRPD (equilibration at 50° C. for 10 days in Acetone) was “I-1 Form A”. The XRPD (equilibration at 50° C. for 10 days in Acetone/water(60:40, v/v) a.w. 0.8) was “III-1 Form C”, the “ee %(SFC)” value (equilibration at 50° C. for 10 days in Acetone/water(60:40, v/v), SFC immediately after preparation) was “ee % (SFC): 56.9%*” and the XRPD (equilibration at 50° C. for 10 days in Acetonitrile) was “I-1 Form A”. The XRPD (equilibration at 50° C. for 10 days in Anisole) was “I-1 Form A”, the XRPD (equilibration at 50° C. for 10 days in EtOH/water(50:50, v/v) a.w. 0.9) was “III-1 Form A” and the “ee %(SFC)” value (equilibration at 50° C. for 10 days in EtOH/water(50:50, v/v), SFC after preparation for about 12 h) was “ee % (SFC): 75.0%#;”. The “ee %(SFC)” value (equilibration at 50° C. for 10 days in EtOH/water(50:50, v/v), SFC immediately after preparation) was “ee % (SFC): 76.9%*,” and the XRPD (equilibration at 50° C. for 10 days in Ethanol) was “I-1 Form A”.
